Laboratory results taken from US7585519B2, “Esters of L-carnitine or alkanoyl L-carnitines useful as cationic lipids for the intracellular delivery of pharmacologically active compounds” (Sigma-Tau Industrie Farmaceutiche Riunite S.p.A., priority 1999, dated 2009).
Where “and” joins values, the source holds several entries; their conditions need not be identical. Identical values can stand only once. Each block holds one compound with its values, some of them ahead of it.

How the values were obtained:
HeLa cells = conditions: liposome 9 μM, 2.5 μg plasmid DNA, versus DOTAP, FIGS. 1 and 2
Protocol: Liposome and plasmid DNA were suitably diluted separately in PBS. The DNA was then added to the liposome and the liposome-DNA complex was left for approximately 30 min at 4° C. to facilitate the formation of a stable liposome-DNA interaction.
In the in-vitro experiments, 1,2-dioleoyloxy-3-trimethyl-ammonium propane (DOTAP) was used as a reference cationic lipid; 2.5 μg of plasmid DNA were used per 2×10^5 HeLa cells, and the liposome concentration was 9 μM.
5 μg of the DNA extracted from the cells were preabsorbed on nylon filters (Boehringer) using the Biorad dot-blot appliance. The filters were then prehybridised for 4 hours at 65° C. with a solution containing 0.5 M of sodium pyrophosphate (NaPi), 1 mM EDTA, 7% SDS. […] The autoradiographic analysis was carried out with the aid of a phosphor imager which uses phosphor screens activated by beta-radiation which are read and quantified by means of a photomultiplier system in conjunction with an image analysis program. […]
As an alternative, the transfection efficiency of a number of cationic liposomes was evaluated by means of densitometric analysis (phosphor imager) of samples of DNA extracted from transfected cells preabsorbed on nitrocellulose filters (dot-blot) and hybridised with ^32P-labelled plasmid DNA markers, as described previously.

[1] = tested on: luciferase gene of pCMVluc plasmid in liver, lung and heart; assay: In-vivo plasmid DNA transfection test (luciferase activity in tissues); design: species or system Balb/c mice
Protocol: In the in-vivo experiments, both DOTAP and [2,3-(dioleoyl)propyl]trimethylammonium (DOTMA) were used as reference cationic lipids.
The molar ratios defined in the results refer to nmol concentrations of the respective cationic lipids per […] of DNA.
In the in-vivo transfection experiments, 25 μg of plasmid DNA per animal were used.
The plasmid pCMVluc used in these experiments contained the cDNA of the luciferase gene under the transcriptional control of the cytomegalovirus (CMV) promoter.
Protein luciferase activity in cells and tissues was determined using the Boehringer Mannheim kit (cat no. 1669 893).
The cells were washed 3 times in PBS and then removed from the plate with a scraper in lysis buffer (100 mM potassium phosphate pH 7.8. 1 mM dithiothreitol-DTT) and submitted to three consecutive cycles of freezing and thawing. After centrifuging in 1.5 mL Eppendorf tubes, the supernatant was used for the luminescence test not more than 5 hours after extraction of the proteins. Luminescence emission measurements were done using a luminometer at 562 nm. After a first freezing in liquid N2 followed by fine crushing to obtain a powder, the tissues were resuspended in lysis buffer and incubated for 10-15 min in ice.
The samples were then centrifuged in 2 ml Eppendorf tubes and the supernatant was tested for luciferase activity.
Both DOTAP and DOTMA were used as reference cationic lipids, the transfection capacity of which has been amply characterised and described by Abkenet et al., Proc. Natl. Acad. Sci. USA 1993, 90, 6518. In the in-vivo experiments, various different molar ratios of cationic lipids to plasmid DNA were analysed for the purposes of determining the activity of the cationic lipids and the respective most efficient concentrations for gene transfer. The transfection capability of the various liposomes was evaluated both in vitro and in vivo using the luciferase gene […] contained in the pCMVluc plasmid, the activity of which, in terms of relative luminescence units (RLU) (described previously) made for easy quantification.
In this experiment, the dependence of liver, lung and heart transfection efficiency on the ST 983 liposome:plasmid DNA molar ratio was evaluated. The following nmol ratios of liposome per μg DNA were tested: 12:1, 24:1, 36:1 and 48:1.
Groups of 6 Balb/c mice weighing approximately 20 g were treated intravenously with the above-mentioned amounts of liposome-DNA complex in 200 μl volumes of PBS and were sacrificed 24 hours after administration of the complex.

[2] = tested on: luciferase gene of pCMVluc plasmid in liver, lung and heart; assay: as above; design: species or system Balb/c mice; conditions: molar ratio 12:1
[3] = tested on: murine pulmonary carcinoma M109
Protocol: To induce the tumour in vivo, unanaesthetised Balb/c mice received injections of 3×10^5 cells of murine pulmonary carcinoma M109 in 0.1 ml RPMI-1640 (Sigma) in the quadriceps femoris of the right rear paw.
Taxol (paclitaxel INDENA) used as a control was dissolved in the cremophor vehicle EL (BASF) at a concentration of 20 mg/mL and stored at +4° C. for the next 24 hours, protected against the light. At the time of use, it was diluted with phosphate-buffered saline solution (PBS, SIGMA) and injected intravenously in the same volume and concentration conditions as described for taxol transported by the ST 983 liposome.
The cremophor was prepared by diluting 1:1 with ethyl alcohol.
Administrations were given for seven consecutive days starting from day 10 after inoculation of the tumour. The animals were kept under observation up to day 17 post-inoculation and sacrificed by cervical dislocation, and their lungs were removed for determination of the number of metastases. Staining of the lungs to detect metastases was done by incubating the lungs for 10 days in 5 ml of Bouin's solution, consisting of 71% saturated picric acid solution, 4.8% glacial acetic acid (Merck), and 24% 10% formaldehyde (Fluka). At the end of the incubation period in Bouin's solution, the numbers of metastases were counted.
Statistical analysis of the data for the number of lung metastases was done using the Mann-Whitney non-parametric tests for unpaired data.

M109 cells = assay: In-vitro cytotoxicity test (sulforhodamine B, SRB); format: cell-based, murine; conditions: for optical density reading at 540 nm (Mean): Table 2.3; for optical density reading at 540 nm (single reading): Table 2.3, listed as DMSO-CPT 83
Protocol: The toxicity assays were done on HeLa and M109 cells in 96-well plates. On the day after plating, the cells were treated with the molecules being tested for the next 48 hours. The cells were then washed with PBS and left in normal growth conditions for 48 hours. After removal of the growth medium, the cells were incubated on ice with 16% TCA, washed 3 times in H2O, treated for 30 minutes with sulforhodamine B (SRB) in 1% acetic acid, washed 3 times in 1% acetic acid alone, incubated for 20 minutes in TRIS 10 mM pH 10.5 and, lastly, readings were taken at 540 nm. To evaluate the ability of the liposome to transport CPT 83 in vitro in M109 cells the sulforhodamine B test described above was used. In addition, the cytotoxicity of CPT 83 dissolved in dimethyl-sulphoxide (DMSO) was also evaluated as compared to that of the same molecule complexed with the ST 983 liposome. The liposome-CPT 83 complex was used in the cytotoxicity assays at the concentrations indicated in Tables 2.1, 2.2 and […] here below in both the SUV and MLV configurations. The liposome:CPT 83 molar ratio used was 40:1.

[4] = ST 983:DNA molar ratio 24:1, i.v., 24 hours
[5] = ST 983:DNA molar ratio 36:1, i.v., 24 hours
[6] = ST 983:DNA molar ratio 48:1, i.v., 24 hours
[7] = liposome:DNA molar ratio 12:1, i.v., 24 hours
[8] = liposome/DNA preincubation time 30 min.
[9] = liposome/DNA preincubation time 3 h

Compound: ester of propionyl L-carnitine bromide with 2-hydroxy acetyl 1,3 dipalmitoyl glycerol [ST 772]
amounts of plasmid DNA in transfected cells (blot analysis) (HeLa cells): same order of magnitude as obtained with DOTAP

Mean RLU/mg protein ± s.d. Lung [1, 4]: 2257856 +/− 280480 RLU/mg protein
Mean RLU/mg protein ± s.d. heart [1, 4]: 7091 +/− 249 RLU/mg protein
Mean RLU/mg protein ± s.d. liver [1, 4]: 1310 +/− 385 RLU/mg protein
Mean RLU/mg protein ± s.d. Lung [1, 5]: 301107 +/− 21503 RLU/mg protein
Mean RLU/mg protein ± s.d. heart [1, 5]: 8351 +/− 477 RLU/mg protein
Mean RLU/mg protein ± s.d. liver [1, 5]: 1035 +/− 347 RLU/mg protein
Mean RLU/mg protein ± s.d. Lung [1, 6]: 112747 +/− 5655 RLU/mg protein
Mean RLU/mg protein ± s.d. heart [1, 6]: 5251 +/− 489 RLU/mg protein
Mean RLU/mg protein ± s.d. liver [1, 6]: 1571 +/− 156 RLU/mg protein
share of the total luciferase extracted from lung, heart and liver located in the lungs ([1]; all molar ratios analysed): approximately 99%
Mean RLU/mg protein ± s.d. Lung ([1]; liposome/DNA preincubation time 30 min., molar ratio 12:1): 874882 +/− 65917 RLU/mg protein
Mean RLU/mg protein ± s.d. liver ([1]; liposome/DNA preincubation time 3 h, molar ratio 12:1): 2497 +/− 682 RLU/mg protein
Mean RLU/mg protein ± s.d. Lung [1, 7]: 8818442 +/− 449529 RLU/mg protein
Mean RLU/mg protein ± s.d. heart [1, 7]: 28875 +/− 2593 RLU/mg protein
Mean RLU/mg protein ± s.d. liver [1, 7]: 2589 +/− 140 RLU/mg protein
increase in luciferase activity in the lung and heart, 3 hours versus 30 minutes preincubation ([1]; molar ratio 12:1): approximately 5 fold
Mean RLU/mg protein ± s.d. heart [2, 8]: 8118 +/− 263 RLU/mg protein
Mean RLU/mg protein ± s.d. liver [2, 8]: 3526 +/− 260 RLU/mg protein
Mean RLU/mg protein ± s.d. Lung [2, 9]: 4225656 +/− 211731 RLU/mg protein
Mean RLU/mg protein ± s.d. heart [2, 9]: 37100 +/− 1853 RLU/mg protein
Compound: CCCCCCCCCCCCCCCC(=O)O[C@H](CC(=O)OCCCCCCCCCCC)C[N+](C)(C)C.[Cl-] [ST 983, palmitoyl L-carnitine chloride undecyl ester]
in-vivo plasmid DNA transport efficiency compared with DOTMA ([1]; lung, molar ratio 12:1): efficiency ratings higher than and/or comparable to those of DOTMA

Compound: CC(=O)O[C@H]1C(=O)[C@@]2(C)[C@H]([C@H](OC(=O)c3ccccc3)[C@]3(O)C[C@H](OC(=O)[C@H](O)[C@@H](NC(=O)c4ccccc4)c4ccccc4)C(C)=C1C3(C)C)[C@]1(OC(C)=O)CO[C@@H]1C[C@@H]2O [Taxol, paclitaxel]
effect on pulmonary metastases compared to untreated control mice ([3]; M109, Balb/c mice, i.v.): no reducing effect on the number of pulmonary metastases
metastases size ([3]; lung metastases at 17th day after M109 inoculation, BALB/c mice): S (S = small (<1 mm diameter))
metastases Mean ± s.d ([3]; lung metastases at 17th day after M109 inoculation, BALB/c mice, i.v. for seven consecutive days from day 10): 22 ± 9

Compound: CC[C@@]1(O)C(=O)OCc2c1cc1n(c2=O)Cc2c-1nc1ccccc1c2C#N [CPT 83, 7-carbonitrile camptothecin]
optical density reading at 540 nm (Mean) (M109 cells; 0.0013 μM): 0.8399
optical density reading at 540 nm (single reading) (M109 cells; 0.0013 μM): 0.863 and 0.795 and 0.831 and 0.878 and 0.809 and 0.816 and 0.886 and 0.841
optical density reading at 540 nm (Mean) (M109 cells; 0.013 μM): 0.82
optical density reading at 540 nm (single reading) (M109 cells; 0.013 μM): 0.851 and 0.79 and 0.806 and 0.81 and 0.8 and 0.804 and 0.863 and 0.836
optical density reading at 540 nm (Mean) (M109 cells; 0.13 μM): 0.4446
optical density reading at 540 nm (single reading) (M109 cells; 0.13 μM): 0.474 and 0.467 and 0.429 and 0.421 and 0.406 and 0.407 and 0.57 and 0.383
optical density reading at 540 nm (Mean) (M109 cells; 1.3 μM): 0.309
optical density reading at 540 nm (single reading) (M109 cells; 1.3 μM): 0.318 and 0.317 and 0.328 and 0.305 and 0.33 and 0.302 and 0.285 and 0.287
optical density reading at 540 nm (Mean) (M109 cells; 13 μM): 0.2921
optical density reading at 540 nm (single reading) (M109 cells; 13 μM): 0.285 and 0.288 and 0.312 and 0.318 and 0.281 and 0.267 and 0.3 and 0.286
